Measurements as given in patent US10835542B2, “9-aminomethyl minocycline compounds and use thereof in treating community-acquired bacterial pneumonia (CABP)” (Paratek Pharmaceuticals, Inc., priority 2016, dated 2020).
Where two headings read alike, the source gives them in different places.

Assays:
[1] = Safety assessments in the multiple iv dose BAL study, healthy adult subjects; format: in vivo, human; conditions: 5 doses of 100 mg iv
Description: Safety assessments included physical examinations, electrocardiograms (ECG), vital signs, standard clinical laboratory evaluations (blood chemistry, hematology), pregnancy testing, and adverse event (AE) and serious adverse event (SAE) monitoring.
Any subject who received at least 1 dose of test article was included in the evaluation for safety. Safety was assessed by the following measures: Physical exams; AEs and SAEs; Vital signs; Laboratory assessments (Blood samples for hematology, chemistry, and coagulation (prothrombin time only)); ECG; and Pregnancy assessments.
Subjects were analyzed according to the treatment actually received.

[2] = test system: Streptococcus pneumoniae; assay: Mouse model of lower respiratory tract infection; format: in vivo; conditions: infection caused by Streptococcus pneumoniae
[3] = test system: Haemophilus influenzae; assay: Mouse model of lower respiratory tract infection; format: in vivo; conditions: infection caused by Haemophilus influenzae
[4] = test system: cSSSI; assay: Phase 2 and Phase 3 studies in complicated skin and skin structure infection (cSSSI); format: in vivo, human
[5] = Safety and tolerability in the food effect study; format: in vivo, human
Description: Safety and tolerability was assessed by: Adverse events (AEs); vital sign measurements at multiple time-points within 24 hours post-dose in each treatment period; and clinical laboratory tests 24 hours post-dose in each treatment period.

[6] = test system: baseline pathogen; format: in vivo, human; conditions: PTE, microITT

For `CN(C)c1cc(CNCC(C)(C)C)c(O)c2c1C[C@H]1C[C@H]3[C@H](N(C)C)C(O)=C(C(N)=O)C(=O)[C@@]3(O)C(O)=C1C2=O` [Compound 1, 9-[(2,2-dimethyl-propylamino)-methyl]-minocycline], the “Treatment-emergent adverse events (TEAEs) reported” value [1] was 29%, the “changes in vital signs, laboratory or ECG parameters” value [1] was “no clinically significant changes” and the “discontinuations due to TEAEs” value [1] was “no discontinuations due to TEAEs”. The “most common TEAE: headache” value [1] was 12%, the “severe or serious TEAEs” value [1] was “no severe or serious TEAEs” and the “efficacy in mouse model of lower respiratory tract infection” value [2] was “effective”. For the same compound, the “efficacy in mouse model of lower respiratory tract infection” value [3] was “effective”, the “tolerability in cSSSI studies” value ([4]; Phase 2 (219 subjects) and terminated Phase 3 (143 subjects)) was “well-tolerated” and the “efficacy in cSSSI studies” value ([4]; versus comparator linezolid) was “efficacy similar to an established comparator (linezolid)”. The “tolerability of a single oral dose” value ([5]; 300 mg oral) was “well tolerated”, the “subjects with treatment emergent AEs” value ([5]; 32 subjects, nausea, somnolence, mild, unrelated to study drug) was “two” and the “median change from baseline in heart rate” value ([5]; all other treatment groups, all measured time points) was ≤ 3 bpm. The “serious AE (SAE)” value ([5]; single 300 mg oral dose) was “no subject experienced a serious AE”, the “treatment-related adverse events or clinically relevant changes in laboratory values or vital signs” value ([5]; single 300 mg oral dose) was “No treatment-related adverse events” and the “Clinical Success n (%)” value ([6]; baseline pathogen Acinetobacter baumanii complex, N1 = 0 (Compound 1), 1 (Moxifloxacin)) was 0 n (%). For the same compound, the “Clinical Success n (%)” value ([6]; baseline pathogen Acinetobacter baumanii, N1 = 0 (Compound 1), 1 (Moxifloxacin)) was 0 n (%), the “Clinical Success n (%)” value ([6]; baseline pathogen Acinetobacter junii, N1 = 1 (Compound 1), 0 (Moxifloxacin)) was 1 (100.0) n (%) and the “Clinical Success n (%)” value ([6]; baseline pathogen Acinetobacter lwoffii, N1 = 1 (Compound 1), 0 (Moxifloxacin)) was 1 (100.0) n (%). For the same compound, the “Clinical Success n (%)” value ([6]; baseline pathogen Citrobacter braakii, N1 = 0 (Compound 1), 1 (Moxifloxacin)) was 0 n (%), the “Clinical Success n (%)” value ([6]; baseline pathogen Citrobacter freundii, N1 = 0 (Compound 1), 1 (Moxifloxacin)) was 0 n (%) and the “Clinical Success n (%)” value ([6]; baseline pathogen Enterobacter cloacae, N1 = 2 (Compound 1), 4 (Moxifloxacin)) was 2 (100.0) n (%). For the same compound, the “Clinical Success n (%)” value ([6]; baseline pathogen Haemophilus haemolyticus, N1 = 1 (Compound 1), 0 (Moxifloxacin)) was 1 (100.0) n (%), the “Clinical Success n (%)” value ([6]; baseline pathogen Haemophilus parahaemolyticus, N1 = 2 (Compound 1), 2 (Moxifloxacin)) was 2 (100.0) n (%) and the “Clinical Success n (%)” value ([6]; baseline pathogen Klebsiella oxytoca, N1 = 1 (Compound 1), 4 (Moxifloxacin)) was 0 n (%). The “Clinical Success n (%)” value ([6]; baseline pathogen Morganella morganii, N1 = 1 (Compound 1), 0 (Moxifloxacin)) was 1 (100.0) n (%), the “Clinical Success n (%)” value ([6]; baseline pathogen Neisseria meningitidis, N1 = 1 (Compound 1), 1 (Moxifloxacin)) was 1 (100.0) n (%) and the “Clinical Success n (%)” value ([6]; baseline pathogen Prevotella oris, N1 = 0 (Compound 1), 1 (Moxifloxacin)) was 0 n (%). The “Clinical Success n (%)” value ([6]; baseline pathogen Proteus mirabilis, N1 = 2 (Compound 1), 2 (Moxifloxacin)) was 1 (50.0) n (%), the “Clinical Success n (%)” value ([6]; baseline pathogen Pseudomonas aeruginosa, N1 = 3 (Compound 1), 5 (Moxifloxacin)) was 2 (66.7) n (%) and the “Clinical Success n (%)” value ([6]; baseline pathogen Pseudomonas putida, N1 = 0 (Compound 1), 1 (Moxifloxacin)) was 0 n (%). The “Clinical Success n (%)” value ([6]; baseline pathogen Serratia marcescens, N1 = 1 (Compound 1), 0 (Moxifloxacin)) was 1 (100.0) n (%), the “Clinical Success n (%)” value ([6]; baseline pathogen Stenotrophomonas maltophilia, N1 = 0 (Compound 1), 2 (Moxifloxacin)) was 0 n (%) and the “Clinical Success n (%)” value ([6]; baseline pathogen Streptococcus agalactiae, N1 = 2 (Compound 1), 3 (Moxifloxacin)) was 2 (100.0) n (%). For the same compound, the “Clinical Success n (%)” value ([6]; baseline pathogen Streptococcus anginosus, N1 = 0 (Compound 1), 1 (Moxifloxacin)) was 0 n (%), the “Clinical Success n (%)” value ([6]; baseline pathogen Streptococcus constellatus, N1 = 1 (Compound 1), 1 (Moxifloxacin)) was 1 (100.0) n (%) and the “Clinical Success n (%)” value ([6]; baseline pathogen Streptococcus gordonii, N1 = 0 (Compound 1), 1 (Moxifloxacin)) was 0 n (%). For the same compound, the “Clinical Success n (%)” value ([6]; baseline pathogen Streptococcus mitis group, N1 = 1 (Compound 1), 2 (Moxifloxacin)) was 1 (100.0) n (%), the “Clinical Success n (%)” value ([6]; baseline pathogen Streptococcus mitis, N1 = 3 (Compound 1), 5 (Moxifloxacin)) was 3 (100.0) n (%) and the “Clinical Success n (%)” value ([6]; baseline pathogen Streptococcus oralis, N1 = 1 (Compound 1), 0 (Moxifloxacin)) was 1 (100.0) n (%). For the same compound, the “Clinical Success n (%)” value ([6]; baseline pathogen Streptococcus parasanguinis, N1 = 0 (Compound 1), 2 (Moxifloxacin)) was 0 n (%), the “Clinical Success n (%)” value ([6]; baseline pathogen Streptococcus salivarius, N1 = 1 (Compound 1), 3 (Moxifloxacin)) was 1 (100.0) n (%) and the “Clinical Success n (%)” value ([6]; baseline pathogen Streptococcus sanguinis, N1 = 0 (Compound 1), 2 (Moxifloxacin)) was 0 n (%). The “Total number of deaths” value (ITT population) was 8, the “severity of gastrointestinal (GI) adverse events (vomiting, nausea, diarrhea, dyspepsia)” value (Phase 3 CABP) was “mild” and the Subjects who died (Safety population) was 8 (2.1) n (%). For the same compound, the “Subjects with at least one Adverse Event (AE)” value (Safety population) was 170 (44.5) n (%), the “Subjects with at least one Drug-Related Serious TEAE” value (Safety population) was 2 (0.5) n (%) and the “Subjects with at least one Drug-Related TEAE” value (Safety population) was 39 (10.2) n (%). For the same compound, the “Subjects with at least one Serious TEAE” value (Safety population) was 23 (6.0) n (%), the “Subjects with at least one Serious TEAE Leading to Death” value (Safety population) was 8 (2.1) n (%) and the “Subjects with at least one Serious TEAE Leading to Premature Discontinuation of Test Article” value (Safety population) was 10 (2.6) n (%). The “Subjects with at least one Severe TEAE” value (Safety population) was 25 (6.5) n (%), the “Subjects with at least one TEAE” value (Safety population) was 157 (41.1) n (%) and the “Subjects with at least one TEAE Leading to Dose Interruption” value (Safety population) was 0 n (%). For the same compound, the “Subjects with at least one TEAE Leading to Premature Discontinuation of Study” value (Safety population) was 7 (1.8) n (%), the “Subjects with at least one TEAE Leading to Premature Discontinuation of Test Article” value (Safety population) was 21 (5.5) n (%) and the “TEAE leading to study drug discontinuation: Diarrhoea” value (Safety population) was 0 n (%). For the same compound, the “TEAE leading to study drug discontinuation: Dyspepsia” value (Safety population) was 0 n (%), the “TEAE leading to study drug discontinuation: Gastrointestinal Disorders” value (Safety population) was 2 (0.5) n (%) and the “TEAE leading to study drug discontinuation: Nausea” value (Safety population) was 1 (0.3) n (%). For the same compound, the “TEAE leading to study drug discontinuation: Vomiting” value (Safety population) was 2 (0.5) n (%), the “TEAE: Alanine Aminotransferase Increased” value (Safety population) was 14 (3.7) n (%) and the “TEAE: Aspartate Aminotransferase Increased” value (Safety population) was 8 (2.1) n (%). The “TEAE: Clostridium Difficile Colitis” value (Safety population) was 0 n (%), the “TEAE: Clostridium Difficile Infection” value (Safety population) was 0 n (%) and the “TEAE: Constipation” value (Safety population) was 9 (2.4) n (%). The “TEAE: Diarrhoea” value (Safety population) was 4 (1.0) n (%), the “TEAE: Dyspepsia” value (Safety population) was 4 (1.0) n (%) and the “TEAE: Gamma-Glutamyltransferase Increased” value (Safety population) was 10 (2.6) n (%). For the same compound, the “TEAE: Headache” value (Safety population) was 8 (2.1) n (%), the “TEAE: Hypertension” value (Safety population) was 13 (3.4) n (%) and the “TEAE: Insomnia” value (Safety population) was 10 (2.6) n (%).
